Patent US20210030761A1, “TREATMENT AND PREVENTION OF ALPHA HERPES VIRUS INFECTION” (THE REGENTS OF THE UNIVERSITY OF COLORADO, a body corporate, priority 2018, published 2021)

Tests used:
VZV = test: Total VZV DNA in adult primary human perineurial cells (HPNCs); format: cell-based, varicella zoster virus; conditions: 72 HPI
From the text: At 12, 24, 48, and 72 HPI, cells were visualized by light microscopy in the untreated and treated cultures and harvested for DNA.

uninfected HA-sp = conditions: tested at 1-100 μM, data not shown
Procedure: (§1) Cell Culture and Infection: Primary human spinal astrocytes (HA-sp; Sciencell, Carlsbad, Calif.) were seeded at 5,000 cells/cm' in a basal astrocyte medium containing 2% fetal bovine serum (FBS), 1% astrocyte growth supplement, and 1% 100× penicillin-streptomycin (Sciencell). After 24 hours, medium was changed to basal astrocyte medium containing 0.1% FBS and 1% 100× penicillin-streptomycin that was replenished every 72 hours for 7 days to establish quiescence. On day 7, spinal astrocytes were co-cultivated with VZV-infected spinal astrocytes (40 pfu/mL) or mock-infected spinal astrocytes. […] Light microscopy images to observe a cytopathic effect were obtained at 12, 24, 48 and 72 HPI followed by DNA extraction and PCR quantification of VZV DNA as described below. Substance P ELISA: Substance P was quantitated from mock- and VZV-infected HA-sp using a colorimetric competitive enzyme immunoassay kit according to the manufacturer's instructions (Enzo, Farmingdale, N.Y.). The sensitivity range was 9.76-10,000 pg/mL, as determined by controls run on the same assay as samples. Immunofluorescence Assay: HA-sp were propagated and treated as described above in an ibidi 24-well μ-Plate (ibidi, Martinsried, Germany). […] GFAP and NK-1R were detected using a 1:500 dilution of chicken anti-GFAP (Abcam) and a 1:100 dilution of rabbit anti-NK-1R (Novus Biologicals LLC, Littleton, Colo.), respectively. […]

[1] = system: VZV-infected primary human spinal astrocytes (HA-sp); test: Immunocytochemistry of cellular processes and NK-1R localization in VZV-infected HA-sp; format: cell-based; conditions: 3 DPI; 10 μM aprepitant; versus vehicle
Procedure: as §1

[2] = system: quiescent uninfected spinal astrocytes; test: Substance P treatment of uninfected spinal astrocytes: NK-1R distribution by immunofluorescence and process formation by CellTracker Deep Red; format: cell-based, human; conditions: 10^−6 M substance P for 60 minutes
Procedure: as §1

C[C@@H](OC[C@@]1(c2ccccc2)CC[C@]2(CCC(=O)N2)CN1)c1cc(C(F)(F)F)cc(C(F)(F)F)c1 [rolapitant]
total VZV DNA (VZV; treated at 24 HPI): significantly reduced total VZV DNA | total VZV DNA (VZV; treated at time of infection): significantly reduced total VZV DNA

C[C@@H](O[C@H]1OCCN(Cc2n[nH]c(=O)[nH]2)[C@H]1c1ccc(F)cc1)c1cc(C(F)(F)F)cc(C(F)(F)F)c1 [aprepitant]
optimal concentration to avoid cell death (uninfected HA-sp): 10 µM | lamellipodia formation in VZV-infected cells [1]: reduction in lamellipodia formation

substance P
NK-1R localization [2]: detected predominantly in cytoplasm | lamellipodia formation ([2]; CellTracker Deep Red): lack of lamellipodia
